The text below walks through data of US20250084091A1, “INHIBITORS OF SARS-COV-2” (The Texas A&M University System, priority 2021, published 2025).

Molecules are shown by their SMILES. Where two headings read alike, the source gives them in different places.

Experiment [1] has as its target SARS-CoV-2 main protease (Mpro) (Severe acute respiratory syndrome coronavirus 2, UniProt P0DTD1). The experiment can be described thus: biochemical. As to conditions: for inhibition at 20 µM: read-out: Enzyme inhibition @ 20 uM.
For experiment [2], the system named is SARS-CoV-2 (strain USA-WA1/2020). The experiment can be described thus: microbe, parasite or virus in culture. The class given is cell-based.
[3] abbreviates: Table 3, select example compounds against mpro, read-out: Enzyme IC50.
[4] abbreviates: Severe acute respiratory syndrome coronavirus 2, HeLa, Table 3, read-out: CoV-2 HeLa EC50.

Consider `O=C(C1CNCCO1)N1CCN(C(c2ccccc2)c2ccccc2)CC1` (stereo not drawn) [AA-582, (4-benzhydrylpiperazin-1-yl)(morpholin-2-yl)methanone], for which the inhibition at 20 µM in experiment [1] was found to be 60%.
Regarding `Cc1cncc(CN2CCN(C(c3ccccc3)c3ccccc3)CC2=O)c1` [AA-646, 4-benzhydryl-1-((5-methylpyridin-3-yl)methyl)piperazin-2-one], in experiment [1] (Table 2, read-out: Enzyme IC50), the IC50 was 6100 nM. Further, the concentration giving a half-maximal response (EC50) in experiment [2] (Severe acute respiratory syndrome coronavirus 2, Table 2, SARS-CoV-2 infected HeLa-ACE2 cells, read-out: CoV-2 HeLa EC50) worked out at 5200 nM.
In the case of `O=C(c1cncc2cc[nH]c12)N1CC2CCC(C1)N2C(c1cccc(F)c1)c1cccc(F)c1` [AA-663, [8-[bis(3-fluorophenyl)methyl]-3,8-diazabicyclo[3.2.1]octan-3-yl]-(1H-pyrrolo[3,2-c]pyridin-7-yl)methanone], the half-maximal inhibitory concentration (IC50) amounted to 38 nM in experiment [1] (Enzyme IC50, Table 2) and 14 nM in experiment [1] (Enzyme IC50, Table 3, select example compounds against mpro). Besides, the EC50 in experiment [2] (Severe acute respiratory syndrome coronavirus 2, HeLa, read-out: CoV-2 HeLa EC50, Table 3) worked out at 63 nM.
Consider `O=C(c1cncc2cc[nH]c12)N1CCC(N(c2ccccc2)c2ccccc2)CC1` [AA-667, [4-(N-phenylanilino)-1-piperidyl]-(1H-pyrrolo[3,2-c]pyridin-7-yl)methanone], for which the IC50 in experiment [1] (Table 2, read-out: Enzyme IC50) worked out at 3320 nM.
Consider `O=C(c1cnccn1)N1CCN(C(c2ccccc2)c2cccnc2)CC1` (stereo not drawn) [MKP-1188, 2-{4-[phenyl(pyridin-3-yl)methyl]piperazine-1-carbonyl}pyrazine], for which, in experiment [1], the inhibition at 20 µM was 50%.
Regarding `O=C(c1cncnc1)N1CCN(C(c2ccccc2)c2cccnc2)CC1` (stereo not drawn) [MKP-1189, 5-{4-[phenyl(pyridin-3-yl)methyl]piperazine-1-carbonyl}pyrimidine], the inhibition at 20 µM in experiment [1] came out at 60%.
Turning to `O=C(c1cncc(Br)c1)N1CCN(C(c2ccccc2)c2cccnc2)CC1` (stereo not drawn) [MKP-1200, 1-(5-bromopyridine-3-carbonyl)-4-[phenyl(pyridin-3-yl)methyl]piperazine], in experiment [1] (Table 2, read-out: Enzyme IC50), the half-inhibitory concentration (IC50) is 320 nM.
For the molecule `COc1cccc(C(c2ccccc2)N2CCN(C(=O)c3cccnc3)CC2)c1` (stereo not drawn) [MKP-1203, 1-[(3-methoxyphenyl)(phenyl)methyl]-4-(pyridine-3-carbonyl)piperazine], the concentration for half-maximal inhibition (IC50) in experiment [1] (Table 2, read-out: Enzyme IC50) was found to be 2800 nM.
With `COc1cccc(C(c2ccccc2)N2CCN(C(=O)c3cncc(Cl)c3)CC2)c1` (stereo not drawn) [MKP-1205, 1-(5-chloropyridine-3-carbonyl)-4-[(3-methoxyphenyl)(phenyl)methyl] piperazine], in experiment [1] (Table 2, read-out: Enzyme IC50), the IC50 was 550 nM.
Same read-out and setting: under `Cc1cncc(C(=O)N2CCC(=C(c3cccc(F)c3)c3cccc(F)c3)CC2)c1` [MKP-1349, (4-(bis(3-fluorophenyl)methylene)piperidin-1-yl)(5-methylpyridin-3-yl)methanone] stands 42 nM.
For `O=C(c1cncc2cc[nH]c12)N1CCC(=C(c2cccc(F)c2)c2cccc(F)c2)CC1` [MKP-1355, (4-(bis(3-fluorophenyl)methylene)piperidin-1-yl)(1H-pyrrolo[3,2-c]pyridin-7-yl)methanone], the IC50 stood at 28 nM in experiment [1] (Table 2, read-out: Enzyme IC50) and 12 nM in experiment [1] (setting [3]). Further, in experiment [2] (setting [4]), the EC50 was 94 nM.
In the case of `Cc1cncc(C(=O)N2CCC(=C(c3ccc(F)cc3)c3cccc(F)c3)CC2)c1` [MKP-1359, (4-((3-fluorophenyl)(4-fluorophenyl)methylene)piperidin-1-yl)(5-methylpyridin-3-yl)methanone], the IC50 in experiment [1] (Table 2, read-out: Enzyme IC50) turned out to be 44 nM.
As for `Cc1cncc(C(=O)N2CCC(=C(c3ccccc3)c3cccc(F)c3)CC2)c1` [MKP-1360, (4-((3-fluorophenyl)(phenyl)methylene)piperidin-1-yl)(5-methylpyridin-3-yl)methanone], in experiment [1] (Table 2, read-out: Enzyme IC50), the concentration for half-maximal inhibition (IC50) is 35 nM.
For `O=C(c1cncc2cc[nH]c12)N1CCN(C(c2cccc(F)c2)c2cccc(F)c2)CC1` [MKP-1371, (4-(bis(3-fluorophenyl)methyl)piperazin-1-yl)(1H-pyrrolo[3,2-c]pyridin-7-yl)methanone], the IC50 worked out at 25 nM in experiment [1] (Table 2, read-out: Enzyme IC50) and 13 nM in experiment [1] (setting [3]). For the same molecule, the concentration giving a half-maximal response (EC50) in experiment [2] (setting [4]) stood at 47 nM.
As to `Cc1cncc(C(=O)N2CCC(=C(c3cccc(O)c3)c3cccc(O)c3)CC2)c1` [MKP-1381, (4-(bis(3-hydroxyphenyl)methylene)piperidin-1-yl)(5-methylpyridin-3-yl)methanone], the IC50 in experiment [1] (Table 2, read-out: Enzyme IC50) was 94 nM.
Take `Cc1cncc(C(=O)N2CCC(=C(c3cccnc3)c3cccc(O)c3)CC2)c1` [MKP-1392, (4-((3-hydroxyphenyl)(pyridin-3-yl)methylene)piperidin-1-yl)(5-methylpyridin-3-yl)methanone]: in experiment [1] (Table 2, read-out: Enzyme IC50), the IC50 came out at 93 nM.
As for `Cc1cncc(C(=O)N2CCC(=C(c3ccccc3)c3ccncc3)CC2)c1` [MKP-1398, (5-methylpyridin-3-yl)(4-(phenyl(pyridin-4-yl)methylene)piperidin-1-yl)methanone], in experiment [1] (Table 2, read-out: Enzyme IC50), the 50% inhibitory concentration (IC50) worked out at 580 nM.
As to `Cc1cncc(C(=O)N2CCC(=C(c3ccccc3)c3ccccn3)CC2)c1` [MKP-1400, (5-methylpyridin-3-yl)(4-(phenyl(pyridin-2-yl)methylene)piperidin-1-yl)methanone], the 50% inhibitory concentration (IC50) in experiment [1] (Table 2, read-out: Enzyme IC50) turned out to be 74 nM.
On to `Cc1cncc(C(=O)N2CCC(N(c3cccc(F)c3)c3cccc(F)c3)CC2)c1` [MKP-1404, (4-(bis(3-fluorophenyl)amino)piperidin-1-yl)(5-methylpyridin-3-yl)methanone], for which the IC50 in experiment [1] (Table 2, read-out: Enzyme IC50) turned out to be 2660 nM.
As to `O=C(c1cncc2cc[nH]c12)N1CCC(=C(c2cccc(O)c2)c2cccc(O)c2)CC1` [MKP-1410, (4-(bis(3-hydroxyphenyl)methylene)piperidin-1-yl)(1H-pyrrolo[3,2-c]pyridin-7-yl)methanone], in experiment [1] (Table 2, read-out: Enzyme IC50), the IC50 worked out at 41 nM.
As to `Cc1cncc(C(=O)N2CCN(C(c3ccccc3)c3ccccn3)CC2)c1` (stereo not drawn) [MKP-1416, (5-methylpyridin-3-yl)(4-(phenyl(pyridin-2-yl)methyl)piperazin-1-yl)methanone], the IC50 in experiment [1] (Table 2, read-out: Enzyme IC50) turned out to be 176 nM.
As to `Cc1cncc(C(=O)N2CCC(=C(c3ccccc3)C3CCCCC3)CC2)c1` [MKP-1421, (4-(cyclohexyl(phenyl)methylene)piperidin-1-yl)(5-methylpyridin-3-yl)methanone], the concentration for half-maximal inhibition (IC50) in experiment [1] (Table 2, read-out: Enzyme IC50) amounted to 920 nM.
As for `Cc1cncc(C(=O)N2CCC(=C(c3ccccn3)c3ccccn3)CC2)c1` [MKP-1422, (4-(di(pyridin-2-yl)methylene)piperidin-1-yl)(5-methylpyridin-3-yl)methanone], in experiment [1] (Table 2, read-out: Enzyme IC50), the IC50 worked out at 110 nM.
On to `COc1ccccc1C(=C1CCN(C(=O)c2cncc(C)c2)CC1)c1ccccn1` [MKP-1440, (4-((2-methoxyphenyl)(pyridin-2-yl)methylene)piperidin-1-yl)(5-methylpyridin-3-yl)methanone], for which the IC50 in experiment [1] (Table 2, read-out: Enzyme IC50) amounted to 170 nM.
Take `Cc1cncc(C(=O)N2CCN(C(c3ccccc3)c3ccncc3)CC2)c1` (stereo not drawn) [MKP-1442, (5-methylpyridin-3-yl)(4-(phenyl(pyridin-4-yl)methyl)piperazin-1-yl)methanone]: the IC50 in experiment [1] (Table 2, read-out: Enzyme IC50) was found to be 1600 nM.
`O=C1CN(C(=O)N2CCN(C3c4ccccc4CS(=O)(=O)c4ccccc43)CC2)c2ccccc2N1` (stereo not drawn) [NZ-812, 4-[4-(5,5-dioxo-6,11-dihydrobenzo[c][1]benzothiepin-11-yl)piperazine-1-carbonyl]-1,3-dihydroquinoxalin-2-one]: in experiment [1] (Table 2, read-out: Enzyme IC50), the 50% inhibitory concentration (IC50) is 550 nM.
Consider `CS(=O)(=O)c1ccccc1C(c1ccccc1)N1CCN(C(=O)c2cncc3cc[nH]c23)CC1` (stereo not drawn) [NZ-814, [4-[(2-methylsulfonylphenyl)-phenyl-methyl]piperazin-1-yl]-(1H-pyrrolo[3,2-c]pyridin-7-yl)methanone], for which the IC50 in experiment [1] (Table 2, read-out: Enzyme IC50) worked out at 53 nM.
Consider `O=C1Nc2ccccc2C(N2CCN(C(=O)c3cncc4cc[nH]c34)CC2)c2ccccc21` (stereo not drawn) [NZ-815, 11-[4-(1H-pyrrolo[3,2-c]pyridine-7-carbonyl)piperazin-1-yl]-5,11-dihydrobenzo[c][1]benzazepin-6-one], for which the IC50 in experiment [1] (Table 2, read-out: Enzyme IC50) was 30 nM; in experiment [1] (setting [3]), 30 nM. The EC50 in experiment [2] (setting [4]) was 97 nM.
Turning to `Cc1cncc(C(=O)N2CCN(C(c3cccc(F)c3)c3ccccc3S(C)(=O)=O)CC2)c1` (stereo not drawn) [NZ-817, [4-[(3-fluorophenyl)-(2-methylsulfonylphenyl)methyl]piperazin-1-yl]-(5-methyl-3-pyridyl)methanone], in experiment [1] (Table 2, read-out: Enzyme IC50), the IC50 is 33 nM.
In the case of `Cc1cc(C(=O)N2CCN(C3c4ccccc4CS(=O)(=O)c4ccccc43)CC2)cnc1N` (stereo not drawn) [NZ-819, (6-amino-5-methyl-3-pyridyl)-[4-(5,5-dioxo-6,11-dihydrobenzo[c][1]benzothiepin-11-yl)piperazin-1-yl]methanone], in experiment [1] (Table 2, read-out: Enzyme IC50), the half-inhibitory concentration (IC50) was determined as 20000 nM.
For `CC(=O)Nc1ncc(C(=O)N2CCN(C3c4ccccc4CS(=O)(=O)c4ccccc43)CC2)cc1C` (stereo not drawn) [NZ-820, N-[5-[4-(5,5-dioxo-6,11-dihydrobenzo[c][1]benzothiepin-11-yl)piperazine-1-carbonyl]-3-methyl-2-pyridyl]acetamide], in experiment [1] (Table 2, read-out: Enzyme IC50), the IC50 was greater than 80000 nM.
Turning to `O=C1Nc2ccc(F)cc2C1CC(=O)N1CCN(C(c2ccccc2)c2ccccc2)CC1` (stereo not drawn) [PKJ-663, 3-(2-(4-benzhydrylpiperazin-1-yl)-2-oxoethyl)-5-fluoroindolin-2-one], the IC50 in experiment [1] (Table 2, read-out: Enzyme IC50) is greater than 80000 nM.
Turning to `Cc1cncc(C(=O)C2CCN(C(c3ccccc3)c3ccccc3)CC2=O)c1` (stereo not drawn) [PKJ-672, 1-benzhydryl-4-(5-methylnicotinoyl)piperidin-3-one], in experiment [1] (Table 2, read-out: Enzyme IC50), the 50% inhibitory concentration (IC50) worked out at 760 nM.
For the molecule `CC(C)(C)OC(=O)NCc1cncc(C(=O)N2CCN(C(c3ccccc3)c3ccccc3)CC2)c1` [PKJ-703, tert-butyl ((5-(4-benzhydrylpiperazine-1-carbonyl)pyridin-3-yl)methyl)carbamate], the IC50 in experiment [1] (Table 2, read-out: Enzyme IC50) came out at 930 nM.
In the case of `NCc1cncc(C(=O)N2CCN(C(c3ccccc3)c3ccccc3)CC2)c1` [PKJ-704, (5-(aminomethyl)pyridin-3-yl)(4-benzhydrylpiperazin-1-yl)methanone], in experiment [1] (Table 2, read-out: Enzyme IC50), the concentration for half-maximal inhibition (IC50) is 1600 nM.
For `O=C(c1cnccc1Cl)N1CCN(C2c3ccccc3CCc3ccccc32)CC1` [ZS-331, (4-chloro-3-pyridyl)-[4-(2-tricyclo[9.4.0.03,8]pentadeca-1(11),3(8),4,6,12,14-hexaenyl)piperazin-1-yl]methanone], the half-maximal inhibitory concentration (IC50) in experiment [1] (Table 2, read-out: Enzyme IC50) turned out to be 370 nM.

Usually inhibition stands for the change of the read-out against control, counted positive when it falls. What is called IC50 is the point on the concentration scale where inhibition reaches its midpoint. By EC50 is commonly meant the concentration giving half of the maximal effect.
